Test results reported in patent US20050261298A1, “Methods of treating conditions associated with an Edg-7 receptor” (priority 2002, published 2005).

Tests used:
Endothelin ETA = target: T1, Endothelin ETA (Homo sapiens, UniProt P25101); assay: Radioligand binding assay, 125I Endothelin; settings: significance criteria ≧50% of max stimulation or inhibition
T1 construct: expressed in transfected cells; host or cells: CHO cells
T1 sequence (P25101 21-427): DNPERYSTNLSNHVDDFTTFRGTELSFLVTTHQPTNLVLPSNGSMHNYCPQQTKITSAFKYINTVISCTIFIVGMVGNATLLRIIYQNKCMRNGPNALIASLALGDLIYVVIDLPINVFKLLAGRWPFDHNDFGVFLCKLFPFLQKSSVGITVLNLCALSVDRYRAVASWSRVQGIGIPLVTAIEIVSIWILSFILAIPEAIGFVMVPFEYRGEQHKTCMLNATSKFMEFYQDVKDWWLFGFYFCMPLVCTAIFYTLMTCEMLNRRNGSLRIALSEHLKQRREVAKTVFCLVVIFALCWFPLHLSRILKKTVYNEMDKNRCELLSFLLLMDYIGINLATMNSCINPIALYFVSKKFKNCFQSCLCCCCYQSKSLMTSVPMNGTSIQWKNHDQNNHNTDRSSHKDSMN
Experimental: In order to test the selectivity of compounds, various enzyme assays as well as radioligand binding assays were performed using numerous non-Edg receptor targets as listed below.
A radioligand binding assay was performed using adrenergic α1 according to the method of Greengrass and Bremner 1979, Eur. J. Pharmacol. 55:323-326. A radioligand binding assay was performed using adrenergic α2 according to the method of Boyajian and Leslie, 1987, J. Pharmacol. Exp. Ther. 241:1092-1098. A radioligand binding assay was performed using adrenergic β according to the method of Feve et al., 1994, Proc. Natl. Acad. Sci. USA 91:5677-5681. A radioligand binding assay was performed using angiotensin AT2 according to the method of Whitebread et al., 1991, Biochem. Biophys. Res. Comm. 181:1365-1371. A radioligand binding assay was performed using calcium channel Type L, dihydropyridine according to the method of Ehlert et al., 1982, Life Sci. 30:2191-2202. A radioligand binding assay was performed using dopamine D2L according to the method of Bunzo et al., 1988, Nature 336:783-787. A radioligand binding assay was performed using endothelin ETA according to the method of Mihara et al., 1994, J. Pharmacol. Exp Ther. 268:1122-1127. A radioligand binding assay was performed using histamine H1 Central according to the method of Hill et al., 1978, J. Neurochem. 31:997-1004. […]

Edg-8 = target: T2, Edg-8 (Homo sapiens, UniProt Q9H228); assay: Calcium mobilization assay (FLIPR), inhibition of S1P-stimulated calcium increase; assay type: cell-based; settings: HTC cells expressing Edg-8
T2 construct: expressed in transfected cells; host or cells: HTC rat hepatoma cells
T2 sequence (Q9H228 whole entry): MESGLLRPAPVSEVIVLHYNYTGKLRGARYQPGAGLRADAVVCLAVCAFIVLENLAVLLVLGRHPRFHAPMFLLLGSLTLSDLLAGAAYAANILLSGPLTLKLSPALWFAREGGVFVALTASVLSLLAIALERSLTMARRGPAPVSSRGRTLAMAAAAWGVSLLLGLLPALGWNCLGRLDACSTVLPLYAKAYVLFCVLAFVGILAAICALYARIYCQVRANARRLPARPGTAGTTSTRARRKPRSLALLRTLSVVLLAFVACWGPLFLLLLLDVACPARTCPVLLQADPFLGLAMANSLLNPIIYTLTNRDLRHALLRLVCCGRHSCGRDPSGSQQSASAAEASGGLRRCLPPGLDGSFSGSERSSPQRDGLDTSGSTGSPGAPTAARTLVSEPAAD

Edg-1 = target: T3, Edg-1 (Homo sapiens, UniProt P21453); assay: as above; assay type: cell-based; settings: HTC cells expressing Edg-1
T3 construct: expressed in transfected cells; host or cells: HTC rat hepatoma cells
T3 sequence (P21453 whole entry): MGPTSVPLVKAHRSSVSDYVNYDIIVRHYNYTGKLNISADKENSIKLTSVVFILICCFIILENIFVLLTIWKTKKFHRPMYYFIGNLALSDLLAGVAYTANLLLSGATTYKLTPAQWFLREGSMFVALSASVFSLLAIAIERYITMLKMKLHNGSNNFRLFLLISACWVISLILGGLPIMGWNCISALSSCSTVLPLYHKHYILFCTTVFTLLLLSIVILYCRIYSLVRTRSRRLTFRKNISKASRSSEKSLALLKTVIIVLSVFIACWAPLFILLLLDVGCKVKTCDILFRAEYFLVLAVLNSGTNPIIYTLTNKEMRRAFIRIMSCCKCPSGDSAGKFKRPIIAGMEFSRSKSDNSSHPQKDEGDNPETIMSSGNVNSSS

Edg-3 = target: T4, Edg-3 (Homo sapiens, UniProt Q99500); assay: Calcium mobilization assay (FLIPR), inhibition of S1P-stimulated calcium increase; assay type: cell-based; settings: HTC cells expressing Edg-3
T4 construct: expressed in transfected cells; host or cells: HTC rat hepatoma cells
T4 sequence (Q99500 whole entry): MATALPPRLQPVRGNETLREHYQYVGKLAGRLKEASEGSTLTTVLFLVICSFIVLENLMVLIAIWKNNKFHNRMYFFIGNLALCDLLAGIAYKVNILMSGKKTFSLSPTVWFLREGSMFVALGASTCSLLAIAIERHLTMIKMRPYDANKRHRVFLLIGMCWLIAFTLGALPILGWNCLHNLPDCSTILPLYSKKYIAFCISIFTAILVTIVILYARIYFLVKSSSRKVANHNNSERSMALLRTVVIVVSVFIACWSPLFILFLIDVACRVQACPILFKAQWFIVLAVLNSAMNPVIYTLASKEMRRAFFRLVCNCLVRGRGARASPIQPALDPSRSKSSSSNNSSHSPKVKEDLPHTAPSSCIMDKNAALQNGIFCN

Edg-5 = target: T5, Edg-5 (Homo sapiens, UniProt O95136); assay: as above; assay type: cell-based; settings: HTC cells expressing Edg-5
T5 construct: expressed in transfected cells; host or cells: HTC rat hepatoma cells
T5 sequence (O95136 whole entry): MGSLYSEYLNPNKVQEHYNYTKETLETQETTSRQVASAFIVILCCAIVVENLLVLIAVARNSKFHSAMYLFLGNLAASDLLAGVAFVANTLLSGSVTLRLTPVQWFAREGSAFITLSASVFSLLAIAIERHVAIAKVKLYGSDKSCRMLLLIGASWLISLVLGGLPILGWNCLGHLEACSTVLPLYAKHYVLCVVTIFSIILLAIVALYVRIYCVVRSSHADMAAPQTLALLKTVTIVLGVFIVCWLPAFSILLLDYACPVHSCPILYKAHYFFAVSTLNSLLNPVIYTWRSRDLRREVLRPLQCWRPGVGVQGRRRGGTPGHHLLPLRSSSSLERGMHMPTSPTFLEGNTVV

[1] = concentrations as high as 20 µM

Question: Which results are given for `CCOC(=O)c1c(NC(=O)NS(=O)(=O)c2ccccc2Cl)sc2c1CCCC2` [Compound 101]?
Answer: activity in radioligand binding assay, Endothelin ETA (Endothelin ETA): no significant activity; IC50 (Edg-8): > 20 µM; inhibition of S1P-stimulated calcium increases, Edg-8 (Edg-8; [1]): did not inhibit; IC50 (Edg-1): > 20 µM; inhibition of S1P-stimulated calcium increases, Edg-1 (Edg-1; [1]): did not inhibit; melting point: 222 to 225 °C; IC50 (Edg-3): > 20 µM; inhibition of S1P-stimulated calcium increases, Edg-3 (Edg-3; [1]): did not inhibit; IC50 (Edg-5): > 20 µM; inhibition of S1P-stimulated calcium increases, Edg-5 (Edg-5; [1]): did not inhibit
